This test relates to murine neural precursor cells (neurosphere cultures). The test is described as follows: HTS of LOPAC library against secondary neurosphere cultures, MTT proliferation assay at 3 μM, day 7 (z score, P value). It is filed as cell-based, mouse.
Where [1] appears, read: LOPAC screen, neurosphere MTT proliferation, 3 μM, day 7.
Where [2] appears, read: yes/no: significantly inhibited neurosphere proliferation (P<0.01) in primary screen.
Where [3] appears, read: LOPAC library screen at 3 μM, secondary neurosphere cultures, MTT.
[4] abbreviates: LOPAC primary screen, neurosphere MTT proliferation, 3 μM, day 7.
Setting [5] is: yes = significantly inhibited neurosphere proliferation (P<0.01) in the primary screen.
[6] abbreviates: LOPAC library screen, 3 μM, MTT, neurosphere cultures.
Setting [7] is: yes/no: significantly inhibited neurosphere proliferation (P<0.01) in the primary screen.
[8] abbreviates: primary LOPAC screen, 3 μM, MTT, neurosphere proliferation.
[9] abbreviates: yes/no: significantly inhibited neurosphere proliferation in the primary screen.
[10] abbreviates: yes/no: significantly inhibited neurosphere proliferation in primary screen.
The mark [11] stands for this setting: LOPAC library screen, 3 μM, MTT, secondary neurosphere cultures, day 7.

Structures can show the parent of a compound that is named as a salt. Where two headings read alike, the source gives them in different places.

Regarding `CCC(=O)N1CCN(C(=O)c2ccccc2)CC1` [DM 235], the “Z Score” value is on record as −2.019. In addition, under setting [1], the Z score is on record as −2.019. Moreover, under setting [2], the Activity result is given as “no”.
In the case of `CCCNCC(O)COc1ccccc1C(=O)CCc1ccccc1` (centres unmarked) [Propafenone hydrochloride], under setting [3], the “Z Score” value is −0.9673. In addition, the Z score under setting [4] is reported as −0.967. In addition, the Activity entry under setting [5] is “no”.
As for `CCN(CC)CCNC(=O)c1cc(S(C)(=O)=O)ccc1OC` [Tiapride hydrochloride], under setting [6], the “Z Score” value is recorded as 0.6889. In addition, the Z score under setting [4] was 0.689. The Activity result under setting [7] is listed as “no”.
For `OC[C@H]1O[C@@H](n2cnc3c(N[C@H]4CC5CCC4C5)ncnc32)[C@H](O)[C@@H]1O` (stereo partly drawn) [(S)-ENBA], the “Z Score” value came to 0.2078. Further, the Z score under setting [4] was 0.208. In addition, the Activity result under setting [2] was “no”.
As to `Cc1ccc(S(=O)(=O)NC(=O)NN2CCCCCC2)cc1` [Tolazamide], the “Z Score” value under setting [6] came to 1.431. Under setting [8], this compound came in with a Z score of 1.431. Under setting [9], the Activity result is “no”.
On to `CN1C2CCC1CC(OC(=O)c1cc(Cl)cc(Cl)c1)C2` (centres unmarked) [ML-9], for which the “Z Score” value is given as −9.322. The compound also came in with a Z score under setting [4] of −9.322.
Regarding `Cc1cccc(/C=C/c2ccccc2)n1` [SIB 1893], the “Z Score” value is listed as −0.848. Under setting [4], this compound registered a Z score of −0.848. Also, under setting [10], the Activity entry was “no”.
`CC[N+](C)(C)c1cccc(O)c1` [Edrophonium chloride]: the “Z Score” value is given as −0.8064. In addition, the Z score under setting [4] is −0.806. For the same compound, the Activity result under setting [2] is recorded as “no”.
With `COc1cccc2c1[C@@H]1CN(CCCCn3c(=O)[nH]c4c(sc5ncc(-c6ccccc6)nc54)c3=O)C[C@@H]1CO2` [Fiduxosin hydrochloride], the “Z Score” value under setting [6] was 0.2005. Under setting [4], the Z score was 0.200. Moreover, under setting [2], the Activity result is “no”.
As to `N#Cc1cc2nc([O-])c([O-])nc2cc1[N+](=O)[O-].[Na+].[Na+]` [CNQX disodium], the “Z Score” value under setting [11] was −1.904. In addition, the Z score under setting [1] is −1.904. Moreover, the Activity result under setting [2] was “no”.
For `CC(N)=O` [Acetamide], where the note is “168 h, 3 µM”, the “Z Score” value was −1.94 and the Z score is recorded as −1.940. For the same compound, the Activity entry under setting [10] is listed as “no”.
With `NC(=S)c1ccc[n+]([C@@H]2O[C@@H](COP(=O)([O-])OP(=O)(O)OC[C@H]3O[C@@H](n4cnc5c(N)ncnc54)C(OP(=O)([O-])O)[C@H]3O)C(O)C2O)c1.[Na+]` (some centres unmarked) [Thio-NADP sodium], the “Z Score” value is recorded as 0.3661. In addition, under setting [8], the Z score came to 0.366. Also, the Activity result under setting [9] is given as “no”.
Take `CC1COc2c(N3CCN(C)CC3)c(F)cc3c(=O)c(C(=O)O)cn1c23` (centres unmarked) [Ofloxacin]: the “Z Score” value under setting [3] is −0.4889. The same compound gave a Z score under setting [4] of −0.489.
As to (+)-Cyclazocine, the “Z Score” value is recorded as 0.6116. Further, the Z score under setting [1] is listed as 0.612. Besides, under setting [2], the Activity result is “no”.
In the case of `Br.Br.N=C(N)NCCSSCCNC(=N)N` [Guanidinoethyl disulfide dihydrobromide], under “168 h, 3 µM”, the “Z Score” value was −4.521 and the Z score is listed as −4.521. Further, under setting [5], the Activity result is reported as “yes”.
For `CN(C)CCCN1c2ccccc2Sc2ccccc21` [Promazine hydrochloride], under setting [3], the “Z Score” value is on record as −0.8882. Under setting [4], the Z score was −0.888. Further, under setting [7], the Activity entry is reported as “no”.
For `N[C@@H](Cc1ccc(N(CCCl)CCCl)cc1)C(=O)O` [Melphalan], the “Z Score” value is −3.907. The compound also had a Z score under setting [4] of −3.907. Besides, the Activity entry under setting [7] is “yes”.
With `O=c1oc(Cl)c(Cl)c2ccccc12` [3,4-Dichloroisocoumarin], where the note is “168 h, 3 µM”, the “Z Score” value was −1.12 and the Z score was −1.120. The Activity entry under setting [2] is “no”.
With `O=C(O)C1CN(CCCP(=O)(O)O)CCN1` (centres unmarked) [(B1)-CPP], the “Z Score” value stood at 0.3213.
Regarding `CN1[C@@H]2CC[C@H]1CC(OC(=O)c1c[nH]c3ccccc13)C2.Cl` (some centres unmarked) [3-Tropanyl-indole-3-carboxylate hydrochloride], the “Z Score” value was −1.528. The compound also yielded a Z score under setting [8] of −1.528. Moreover, the Activity entry under setting [9] is given as “no”.
`CC1Cc2cc3c(cc2C(c2ccc(N)cc2)=NN1)OCO3` (centres unmarked) [GYKI 52895]: the Activity entry was “no” and the “Z Score” value is listed as −1.258. Also, under setting [4], the Z score is on record as −1.258.
For `CC[C@H](C)C(=O)O[C@H]1CCC=C2C=C[C@H](C)[C@H](CC[C@@H]3C[C@@H](O)CC(=O)O3)[C@H]21` [Mevastatin], the “Z Score” value under setting [11] is −6.278. The same compound had a Z score under setting [4] of −6.278. Moreover, the Activity entry under setting [5] is given as “yes”.
For the compound `CN1CCN2c3ccccc3Cc3ccccc3C2C1` (centres unmarked) [Mianserin hydrochloride], the Activity entry is listed as “no”. Under setting [6], the “Z Score” value is given as 0.9746. The compound also came in with a Z score under setting [4] of 0.975.
Regarding `N.N.N.Nc1ncnc2c1ncn2C1OC(COP(=O)(O)OP(=O)(O)OP(=O)(O)OP(=O)(O)OC[C@H]2O[C@@H](n3cnc4c(N)ncnc43)C(O)C2O)[C@@H](O)C1O` (stereo in doubt), the “Z Score” value under setting [3] is recorded as −0.2867. Besides, the Z score under setting [1] is −0.287. For the same compound, the Activity result under setting [2] is recorded as “no”.
With `C[C@](N)(Cc1ccc(O)cc1)C(=O)O` [L-alpha-Methyl-p-tyrosine], the “Z Score” value was −1.8. Also, the Z score under setting [4] is on record as −1.800. For the same compound, the Activity result under setting [5] is “no”.
In the case of `COC(=O)C1=C(C)NC(C)=C(C(=O)OC)C1c1ccccc1[N+](=O)[O-]` [Nifedipine], for the setting “168 h, 3 µM”, the “Z Score” value is reported as −0.2937 and the Z score was −0.294.
Consider `C[C@H](O)[C@H](O)[C@H]1CNc2nc(N)[nH]c(=O)c2N1.Cl`, for which the “Z Score” value under setting [6] worked out at 0.9757. The compound further gave a Z score under setting [8] of 0.976. Moreover, the Activity entry under setting [9] is “no”.
As for `C[C@]12CCC(=O)C=C1CC[C@@H]1[C@@H]2C(=O)C[C@@]2(C)[C@H]1CC[C@]2(O)C(=O)CO` [Cortisone], the “Z Score” value under setting [3] is listed as −0.5807. The same compound came in with a Z score under setting [8] of −0.581. The Activity result under setting [9] is on record as “no”.
Consider `CCCN(CCC)[C@H]1CCc2c(F)ccc(O)c2C1.Cl` [S(−)-UH-301 hydrochloride], for which the “Z Score” value is given as −2.706. The Z score under setting [4] is −2.706. The Activity entry under setting [7] is “yes”.
With `CC#CCOC(=O)c1c(C)nc2sc3c(c2c1N)CCC(O)C3` (centres unmarked) [SB 205384], the “Z Score” value amounted to 0.7968. For the same compound, the Z score under setting [4] came out at 0.797. Moreover, under setting [10], the Activity result is reported as “no”.
In the case of `CC(C)(C)NCC(O)c1ccc(O)c(CO)c1` (centres unmarked) [Salbutamol], the “Z Score” value under setting [11] is −1.678. The same compound came in with a Z score under setting [4] of −1.678. Under setting [10], the Activity result is reported as “no”.
For `COC(=O)[C@@H]1[C@H]2C[C@H]3c4[nH]c5ccccc5c4CCN3C[C@@H]2CC[C@@H]1O` [Yohimbine hydrochloride], for the setting “168 h, 3 µM”, the “Z Score” value is −1.656 and the Z score is −1.656. Further, the Activity result under setting [9] is “no”.
`CCCCNc1cc(C(=O)O)cc(S(N)(=O)=O)c1Oc1ccccc1` [Bumetanide]: under setting [11], the “Z Score” value was −2.182. This compound also displayed a Z score under setting [1] of −2.182. Under setting [2], the Activity result is “no”.
For the compound `Oc1cc(O)cc(/C=C/c2ccc(O)c(O)c2)c1` [Piceatannol], under “168 h, 3 µM”, the “Z Score” value came out at 0.5958 and the Z score came to 0.596.
Turning to `CC(C)NC[C@@H](O)c1ccc(O)c(O)c1.O=C(O)C(O)C(O)C(=O)O` [S(+)-Isoproterenol(+)-bitartrate], under setting [4], the Z score was −0.296. Further, the Activity result under setting [2] is “no”.
Take `CC(Cc1ccc(O)c(O)c1)C(C)Cc1ccc(O)c(O)c1` (centres unmarked): for the setting “LOPAC library screen at 3 μM, MTT, secondary neurosphere cultures, screened in singlets”, the “Z Score” value was determined as 2.63. Under setting [4], the Z score is given as 2.630. Also, the Activity result under setting [5] is given as “no”.
For `CCNC(=O)[C@H]1O[C@@H](n2cnc3c(N)nc(NCCc4ccc(CCC(=O)O)cc4)nc32)[C@H](O)[C@@H]1O` [CGS-21680 hydrochloride], where the note is “168 h, 3 µM”, the “Z Score” value is reported as −1.225 and the Z score is reported as −1.225. Moreover, the Activity result under setting [7] is “no”.
In the case of `CC(C)(CO)Cc1cc(C(C)(C)C)c(O)c(C(C)(C)C)c1` [CGP-7930], the “Z Score” value is given as −0.411. Further, the Z score under setting [8] was −0.411. The Activity entry under setting [9] is “no”.
`O=C1Nc2ccc(I)cc2/C1=C/c1cc(Br)c(O)c(Br)c1` [GW5074]: the “Z Score” value is reported as −0.1619. The Z score under setting [4] is recorded as −0.162. Besides, the Activity result under setting [2] is “no”.
For `C=CCN1CC[C@]23CCCC[C@H]2[C@H]1Cc1ccc(O)cc13` [Levallorphan tartrate], the “Z Score” value under setting [3] is −0.3465. The compound also gave a Z score under setting [4] of −0.346. Besides, the Activity entry under setting [5] was “no”.
`CCN(CC)CCOC(=O)C1(C2CCCCC2)CCCCC1` [Dicyclomine hydrochloride]: where the note is “168 h, 3 µM”, the “Z Score” value is recorded as 1.414 and the Z score amounted to 1.414.
`Cc1nc(N=Nc2ccc(C(=O)O)cc2)c(COP(=O)(O)O)c(C=O)c1O` [MRS 2159]: the “Z Score” value was −0.2666. The compound further had a Z score under setting [4] of −0.267. Moreover, under setting [5], the Activity entry is “no”.
As to `CC(C)NCC(O)c1ccc(NS(C)(=O)=O)cc1.Cl` (centres unmarked) [(B1)-Sotalol hydrochloride], the “Z Score” value is −0.813.
As for `C[C@]12CCC(=O)C=C1CC[C@@H]1[C@@H]2CC[C@]2(C)C(=O)CC[C@@H]12` [4-Androstene-3,17-dione], the “Z Score” value was −0.6917. Under setting [8], the Z score was −0.692. Further, the Activity entry under setting [9] is recorded as “no”.
`COc1cc(/C=C(\C#N)C(=O)c2ccc(O)c(O)c2)cc(I)c1O` [I-OMe-Tyrphostin AG 538]: the “Z Score” value under setting [3] is listed as −0.7369. This compound yielded a Z score under setting [8] of −0.737. In addition, the Activity result under setting [9] is recorded as “no”.

The record behind these values is patent US8058243B2, “Method for treating a brain cancer with ifenprodil” (HSC Research and Development Limited Partnership, priority 2006, dated 2011).
